Test results reported in patent publication US20230293526A1, “METHOD FOR TREATING CANCER WITH A REVERSE TRANSCRIPTASE INHIBITOR” (PrimeFour Therapeutics, Inc., priority 2020, published 2023).

Legend:
Test in all cases: Cell proliferation CellTiterGlo Ex.2
Type in all cases: cell-based
[1] = tested on: 786-O; conditions: Homo sapiens, 786-0; 786-O (Kidney), 72 h
Method: (§1) A dose response relationship on cell proliferation was assessed for Compound 13 on 140 tumor cell lines. Briefly, compound treatment of cells started one day after seeding with a final DMSO concentration of 0.100, and was performed by nanodrop-dispensing using a Tecan Dispenser. 0.10% DMSO (solvent) and Staurosporine (10 μM) served as high control (10000 viability) and low control (000 viability), respectively. Compound 13 was tested at 10, 3, 1, 0.3, 0.1, 0.03, 0.01, and 0.003 μM.
(§2) Cells were cultured in the appropriate media. For the assays, cells were seeded in white cell culture-treated flat and clear bottom multiwell plates and incubated at 37° C. overnight before compound was added. After incubation for 72 h at 37° C. at 5% or 10% CO2 dependent on the medium, cell plates were equilibrated to room temperature for one hour, CellTiterGlo reagent (Promega) was added and luminescence was measured approximately an hour later using a luminometer.
(§3) Raw data were converted into percent cell viability relative to the high and low control, which were set to 10000 and 000, respectively.

[2] = tested on: A431; conditions: Homo sapiens, A-431; A431 (Skin), 72 h
Method: as §1, §2, §3

[3] = tested on: A498; conditions: Homo sapiens; A498 (Kidney), 72 h
Method: as §1, §2, §3

[4] = tested on: BT-20; conditions: Homo sapiens; BT-20 (Breast), 72 h
Method: as §1, §2, §3

[5] = tested on: BxPC-3; conditions: Homo sapiens; BxPC-3 (Pancreas), 72 h
Method: as §1, §2, §3

[6] = tested on: COV434; conditions: COV434 (Ovary), 72 h
Method: as §1, §2, §3

[7] = tested on: Calu-6; conditions: Homo sapiens; Calu-6 (Lung), 72 h
Method: as §1, §2, §3

[8] = tested on: DU-145; conditions: Homo sapiens; DU-145 (Prostate), 72 h
Method: as §1, §2, §3

[9] = tested on: EFO-27; conditions: Homo sapiens; EFO-27 (Ovary), 72 h
Method: as §1, §2, §3

[10] = tested on: H460; conditions: Homo sapiens, NCI-H460; H460 (Lung), 72 h
Method: as §1, §2, §3

[11] = tested on: HCC827; conditions: Homo sapiens; HCC827 (Lung), 72 h
Method: as §1, §2, §3

[12] = tested on: HCT116; conditions: Homo sapiens, HCT-116; HCT116 (Colon), 72 h
Method: as §1, §2, §3

[13] = tested on: HEC-1-B; conditions: Homo sapiens; HEC-1-B (Endometrium), 72 h
Method: as §1, §2, §3

[14] = tested on: HT-1080; conditions: Homo sapiens; HT-1080 (Fibrosarcoma), 72 h
Method: as §1, §2, §3

[15] = tested on: Hep3B2.1-7; conditions: Hep3B2.1-7 (Liver), 72 h
Method: as §1, §2, §3

[16] = tested on: Ishikawa; conditions: Homo sapiens; Ishikawa (Endometrium), 72 h
Method: as §1, §2, §3

[17] = tested on: LP-1; conditions: Homo sapiens; LP-1 (Blood), 72 h
Method: as §1, §2, §3

[18] = tested on: MDA MB 231; conditions: Homo sapiens; MDA MB 231 (Breast), 72 h
Method: as §1, §2, §3

[19] = tested on: MDA MB 435; conditions: Homo sapiens; MDA MB 435 (Skin), 72 h
Method: as §1, §2, §3

[20] = tested on: MEC-1; conditions: Homo sapiens, MEC1; MEC-1 (Blood), 72 h
Method: as §1, §2, §3

[21] = tested on: NCI-H1437; conditions: Homo sapiens; NCI-H1437 (Lung), 72 h
Method: as §1, §2, §3

[22] = tested on: NCI-H1581; conditions: Homo sapiens; NCI-H1581 (Lung), 72 h
Method: as §1, §2, §3

[23] = tested on: NCI-H2009; conditions: Homo sapiens; NCI-H2009 (Lung), 72 h
Method: as §1, §2, §3

[24] = tested on: NCI-H2286; conditions: Homo sapiens; NCI-H2286 (Lung), 72 h
Method: as §1, §2, §3

[25] = tested on: NCI-N87; conditions: Homo sapiens; NCI-N87 (Stomach), 72 h
Method: as §1, §2, §3

[26] = tested on: OCI-LY19; conditions: Homo sapiens; OCI-LY19 (Blood), 72 h
Method: as §1, §2, §3

[27] = tested on: OPM-2; conditions: Homo sapiens; OPM-2 (Blood), 72 h
Method: as §1, §2, §3

[28] = tested on: OVK18; conditions: OVK18 (Ovary), 72 h
Method: as §1, §2, §3

[29] = tested on: P31/FUJ; conditions: Homo sapiens; P31/FUJ (Blood), 72 h
Method: as §1, §2, §3

[30] = tested on: SCH; conditions: SCH (Stomach), 72 h
Method: as §1, §2, §3

[31] = tested on: SNU840; conditions: SNU-840; SNU840 (Ovary), 72 h
Method: as §1, §2, §3

[32] = tested on: SW480; conditions: Homo sapiens; SW480 (Colon), 72 h
Method: as §1, §2, §3

[33] = tested on: U-266; conditions: Homo sapiens; U-266 (Blood), 72 h
Method: as §1, §2, §3

[34] = tested on: U-937; conditions: Homo sapiens; U-937 (Blood), 72 h
Method: as §1, §2, §3

`C#C[C@]1(CO)O[C@@H](n2cnc3c(=O)[nH]c(N)nc32)C[C@@H]1O` [compound 13] gave an IC50 [1] of 5.81 µM, an IC50 [2] of 5.06 µM and an IC50 [3] greater than 10 µM. For the same compound, the IC50 [4] was greater than 10 µM, the IC50 [5] was 5.43 µM and the IC50 [6] was 4.41 µM. For the same compound, the IC50 [7] was greater than 10 µM, the IC50 [8] was 5.73 µM and the IC50 [9] was 9.9 µM. It also gave an IC50 [10] of 5.68 µM, an IC50 [11] of 4.47 µM and an IC50 [12] of 5.84 µM. The IC50 [13] was greater than 10 µM, the IC50 [14] was 7.16 µM and the IC50 [15] was 0.82 µM. It also gave an IC50 [16] of 6.07 µM, an IC50 [17] of 3.15 µM and an IC50 [18] of 3.85 µM. It also gave an IC50 [19] greater than 10 µM, an IC50 [20] of 9.85 µM and an IC50 [21] greater than 10 µM. For the same compound, the IC50 [22] was 2.97 µM, the IC50 [23] was 1.23 µM and the IC50 [24] was 5.69 µM. For the same compound, the IC50 [25] was 3.6 µM, the IC50 [26] was 0.56 µM and the IC50 [27] was greater than 10 µM. It also gave an IC50 [28] of 2.21 µM, an IC50 [29] of 0.4 µM and an IC50 [30] of 0.29 µM. For the same compound, the IC50 [31] was 4.23 µM, the IC50 [32] was greater than 10 µM and the IC50 [33] was greater than 10 µM. It also gave an IC50 [34] of 1.12 µM.
